Experimental data reported in US9156822B2, “Functionally selective ligands of dopamine D2 receptors” (The University of North Carolina at Chapel Hill, priority 2010, dated 2015).
Where two headings read alike, the source gives them in different places.

Tests used:
hD2 receptors = hD2 receptors (Homo sapiens (Human), UniProt P14416); assay: D2 mediated cAMP GloSensor assay; assay type: cell-based; settings: for EC50: HEK293T, isoproterenol-stimulated cAMP; for Emax: normalized to quinpirole, negative = inverse agonist, read-out: cAMP (GloSensor) Emax; on cAMP (GloSensor) activity in words (merged EC50/Emax cell): key: neutral: Neutral ligands are either antagonists or are inactive
D2 receptors [1] = target: T1, D2 receptors (Homo sapiens (Human), UniProt P14416); assay: CHO-D2 radioligand binding assay ([3H]N-methylspiperone competition); settings: CHO-D2 membranes, [3H]N-methylspiperone; read-out: D2 Binding Ki ± SEM
Target sequence in this assay (P14416 whole entry): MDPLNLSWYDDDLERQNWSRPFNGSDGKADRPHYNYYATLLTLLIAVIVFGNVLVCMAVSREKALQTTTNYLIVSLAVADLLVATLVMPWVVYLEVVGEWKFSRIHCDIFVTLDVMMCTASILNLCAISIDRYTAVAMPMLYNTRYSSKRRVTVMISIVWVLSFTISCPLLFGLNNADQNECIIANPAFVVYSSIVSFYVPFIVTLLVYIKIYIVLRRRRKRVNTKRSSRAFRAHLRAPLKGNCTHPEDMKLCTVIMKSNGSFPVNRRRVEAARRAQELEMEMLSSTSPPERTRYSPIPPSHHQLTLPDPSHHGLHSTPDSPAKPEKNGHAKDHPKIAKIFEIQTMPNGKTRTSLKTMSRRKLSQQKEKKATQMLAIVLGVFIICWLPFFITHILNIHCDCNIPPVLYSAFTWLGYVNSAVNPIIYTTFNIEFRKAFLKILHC

D2 receptors [2] = target: T1, D2 receptors; assay: D2 β-arrestin recruitment (Tango) assay; assay type: cell-based; settings: for Emax: normalized to quinpirole (100%)
Protocol: The next day, cells were plated in white, clear-bottom, 384-well plates (Greiner, 10,000 cells/well, 50 μl/well) in DMEM containing 1% dialyzed fetal bovine serum. […] Data were normalized to vehicle (0%) and quinpirole (100%) controls and regressed using the sigmoidal dose-response function built into GraphPad Prism 4.0.
Target sequence in this assay (P14416 whole entry, looked up): as the sequence (P14416 whole entry) above

[3] = HTLA cells, read-out: β-arrestin (Tango) EC50

hD2 receptors, sequence (P14416 whole entry): as above

With `O=C1CCc2ccc(OCCCN3CCCN(c4cccc(Cl)c4Cl)CC3)cc2N1` [Compound 1, 7-(3-(4-(2,3-dichlorophenyl)-1,4-diazepan-1-yl)propoxy)-3,4-dihydroquinolin-2(1H)-one] as the compound, how does the melting point read?
The melting point was 130 to 131 °C.

Which melting point does the source give for `O=C1NCCc2ccc(OCCCCN3CCCN(c4cccc(Cl)c4Cl)CC3)cc21` [Compound 6, 7-(4-(4-(2,3-dichlorophenyl)-1,4-diazepan-1-yl)butoxy)-3,4-dihydroisoquinolin-1(2H)-one] here?
Its melting point is 86 to 88 °C.

For `Clc1cccc(N2CCCN(CCCCOc3ccc4scnc4c3)CC2)c1Cl` [Compound 7, 5-(4-(4-(2,3-dichlorophenyl)-1,4-diazepan-1-yl)butoxy)benzo[d]thiazole], which melting point is on record?
The melting point was 82 to 84 °C.

For `O=c1[nH]c2ccc(OCCCCN3CCC(c4cccc(Cl)c4Cl)CC3)cc2[nH]1` [Compound 24, 5-(4-(4-(2,3-dichlorophenyl)piperidin-1-yl)butoxy)-1H-benzo[d]imidazol-2(3H)-one], which melting point is on record?
Its melting point is 180 to 182 °C.

Which EC50 (hD2 receptors) does the source give for `Clc1cccc(N2CCN(CCCCOc3ccc4cn[nH]c4c3)CC2)c1Cl` [Compound 28, 6-(4-(4-(2,3-dichlorophenyl)piperazin-1-yl)butoxy)-1H-indazole] here?
The EC50 was 0.0057 µM.

And the Emax (hD2 receptors)?
Its Emax is -29%.

And the Ki (D2 receptors [1])?
The Ki was 0.066 ± 0.01 µM.

What about the “β-arrestin (Tango) % activ at 1 μM” value (D2 receptors [2]) of the same compound?
Its value is 18%.

What about the EC50 (D2 receptors [2]; [3]) of the same compound?
The EC50 was 0.092 µM.

What about the Emax (D2 receptors [2]) of the same compound?
The Emax was 65%.

Which results are given for `O=C1CCc2ccc(Oc3ccc(CN4CCN(c5cccc(Cl)c5Cl)CC4)cc3)cc2N1` [Compound 31, 7-(4-((4-(2,3-dichlorophenyl)piperazin-1-yl)methyl)phenoxy)-3,4-dihydro quinolin-2(1H)-one]?
EC50 (hD2 receptors): 0.0057 µM; Emax (hD2 receptors): -47%; Ki (D2 receptors [1]): 0.108 ± 0.018 µM; β-arrestin (Tango) % activ at 1 μM (D2 receptors [2]): 16%; EC50 (D2 receptors [2]; [3]): 0.399 µM; Emax (D2 receptors [2]): 49%

Which “cAMP (GloSensor) activity in words (merged EC50/Emax cell)” value (hD2 receptors) does the source give for `O=C1NCCc2ccc(OCCCN3CCN(c4cccc(Cl)c4Cl)CC3)cc21` [Compound 32, 7-(3-(4-(2,3-dichlorophenyl)piperazin-1-yl)propoxy)-3,4-dihydroisoquinolin-1(2H)-one] here?
The value was “neutral”.

What about the Ki (D2 receptors [1]) of the same compound?
The Ki was 0.018 ± 0.002 µM.

What about the “β-arrestin (Tango) % activ at 1 μM” value (D2 receptors [2]) of the same compound?
The value was 44%.

And the EC50 (D2 receptors [2]; [3])?
The EC50 was 0.03 µM.

And the Emax (D2 receptors [2])?
The Emax was 83%.

For `O=c1[nH]c2ccc(OCCCN3CCN(c4cccc(Cl)c4Cl)CC3)cc2[nH]1` [Compound 34, 5-(3-(4-(2,3-dichlorophenyl)piperazin-1-yl)propoxy)-1H-benzo[d]imidazol-2(3H)-one], which EC50 (hD2 receptors) is on record?
Its EC50 is 0.512 µM.

What about the Emax (hD2 receptors) of the same compound?
The Emax was 25%.

And the Ki (D2 receptors [1])?
Its Ki is 0.025 ± 0.003 µM.

And the EC50 (D2 receptors [2])?
Its EC50 is 0.052 µM.

What about the “β-arrestin (Tango) % activ at 1 μM” value (D2 receptors [2]) of the same compound?
The value was 36%.

And the Emax (D2 receptors [2])?
The Emax was 78%.

With `O=c1[nH]c2ccc(OCCCCN3CCN(c4cccc(Cl)c4Cl)CC3)cc2[nH]1` [Compound 35] as the compound, how does the “cAMP (GloSensor) activity in words (merged EC50/Emax cell)” value (hD2 receptors) read?
The value was “neutral”.

What about the Ki (D2 receptors [1]) of the same compound?
Its Ki is 0.015 ± 0.003 µM.

And the “β-arrestin (Tango) % activ at 1 μM” value (D2 receptors [2])?
The value was 19%.

What about the EC50 (D2 receptors [2]; [3]) of the same compound?
The EC50 was 0.016 µM.

For `COc1ccccc1N1CCN(CCCCOc2ccc3c(n2)NC(=O)CC3)CC1` [Compound 37], which EC50 (hD2 receptors) is on record?
Its EC50 is 0.011 µM.

And the Emax (hD2 receptors)?
Its Emax is 17%.

And the Ki (D2 receptors [1])?
The Ki was 0.0017 ± 0.0001 µM.

What about the EC50 (D2 receptors [2]) of the same compound?
Its EC50 is 0.001 µM.

And the Emax (D2 receptors [2])?
The Emax was 67%.

Which results are given for `O=C1CCc2ccc(OCCCCN3CCN(c4cccc5c4OCCO5)CC3)cc2N1` [Compound 40, 7-(4-(4-(2,3-dihydrobenzo[b][1,4]dioxin-5-yl)piperazin-1-yl)butoxy)-3,4-dihydroquinolin-2(1H)-one]?
cAMP (GloSensor) activity in words (merged EC50/Emax cell) (hD2 receptors): neutral; Ki (D2 receptors [1]): 0.0003 ± 2e-05 µM; EC50 (D2 receptors [2]; [3]): 0.0015 µM; Emax (D2 receptors [2]): 33%

For `O=C1CCc2ccc(OCCCCN3CCN(c4cccc5c4OCCO5)CC3)nc2N1` [Compound 41, 7-(4-(4-(2,3-dihydrobenzo[b][1,4]dioxin-5-yl)piperazin-1-yl)butoxy)-3,4-dihydro-1,8-naphthyridin-2(1H)-one], which EC50 (hD2 receptors) is on record?
Its EC50 is 0.0004 µM.

What about the Emax (hD2 receptors) of the same compound?
The Emax was -19%.

And the Ki (D2 receptors [1])?
Its Ki is 0.00045 ± 2e-05 µM.

What about the EC50 (D2 receptors [2]; [3]) of the same compound?
Its EC50 is 0.0006 µM.

And the Emax (D2 receptors [2])?
The Emax was 31%.

Which results are given for `CC(=O)Nc1cc(OCCCCN2CCN(c3cccc(Cl)c3Cl)CC2)ccc1C` [Compound 43, N-(5-(4-(4-(2,3-dichlorophenyl)piperazin-1-yl)butoxy)-2-methylphenyl)acetamide]?
cAMP (GloSensor) activity in words (merged EC50/Emax cell) (hD2 receptors): neutral; Ki (D2 receptors [1]): 0.072 ± 0.004 µM; EC50 (D2 receptors [2]; [3]): 0.0092 µM; Emax (D2 receptors [2]): 59%
